Data published in BindingDB's records for doi:10.1016/j.bmcl.2017.04.009 (Vanderbilt University School of Medicine, 2017).
pIC50: −log10 of the molar value.

Biological target: T1, Muscarinic acetylcholine receptor M4 (Homo sapiens, UniProt P08173)
T1 sequence (P08173 whole entry): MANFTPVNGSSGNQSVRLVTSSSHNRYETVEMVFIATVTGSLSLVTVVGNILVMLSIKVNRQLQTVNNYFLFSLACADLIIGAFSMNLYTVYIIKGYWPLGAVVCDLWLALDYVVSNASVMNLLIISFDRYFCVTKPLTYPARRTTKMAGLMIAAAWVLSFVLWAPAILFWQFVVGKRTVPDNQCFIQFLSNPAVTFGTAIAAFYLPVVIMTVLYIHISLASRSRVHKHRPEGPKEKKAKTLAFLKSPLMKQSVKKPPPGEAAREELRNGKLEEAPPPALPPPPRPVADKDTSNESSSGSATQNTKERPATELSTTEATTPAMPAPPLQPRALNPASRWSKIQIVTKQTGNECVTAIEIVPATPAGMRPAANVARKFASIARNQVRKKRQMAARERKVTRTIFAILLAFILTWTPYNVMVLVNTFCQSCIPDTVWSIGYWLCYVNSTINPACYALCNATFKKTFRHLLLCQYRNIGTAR
Test: Antagonist activity at recombinant human M4 receptor expressed in CHO cells co-expressing Gqi5 by calcium mobilization assay

- pIC50: 6.93
Structure (SMILES): O=C(C1CCN(c2cc(Oc3ccc(Cl)cc3F)ncn2)CC1)N1CCc2ccccc2C1
